What was measured:
[1] = tested on: human tumor cell lines (HT29, MCF-7, HeLa, U2OS, and J6); test: Antiproliferative activity in the series of human tumor cell lines; assay type: cell-based; details: MTT; concentration range of 10–500 nM
Protocol: (§1) The human colorectal adenocarcinoma (Caco-2), human colorectal adenocarcinoma (HT29), normal human intestinal (I407), human cervical cancer (HeLa), human breast cancer (MCF7), human bone osteosarcoma (U2OS), and human acute T-cell leukemia (Jurkat J6) cell lines were purchased from American Type Culture Collection (ATCC, Manassas, VA, USA). Cells were cultured in RPMI 1640 medium (Labtek Eurobio, Milan, Italy), supplemented with 10% FCS (Euroclone, Milano, Italy) and 2 mM L-glutamine (Sigma-Aldrich, Milano, Italy), at 37 °C and in a 5% CO2 atmosphere. The compounds were dissolved in DMSO in a 30–40 mM stock solution. In cell treatments, the final DMSO concentration never exceeded 0.1%.
(§2) Cells were seeded in a 96-well culture plastic plate (Sarsted, Milan, Italy), at 5 × 10^4 cells/well and, after 24 h, were exposed to increasing concentrations of the different compounds (from 1 nM to 500 nM) dissolved in RPMI 1640 medium. An MTT assay was performed according to Micheletti et al..
(§3) The absorbance at 570 nm was measured using a multi-well plate reader (Tecan, Männedorf, Switzerland), and data were analyzed by Prism GraphPad 8 software and expressed as IC50 nM.

[2] = tested on: HeLa; test: MTT assay, HeLa cells; assay type: cell-based; details: Homo sapiens, means of four experiments, na = not active, read-out: In vitro cytotoxic activity (IC50), HeLa
Protocol: as §1, §2, §3

[3] = tested on: U2OS; test: MTT assay, U2OS cells; assay type: cell-based; details: Homo sapiens, means of four experiments, na = not active, read-out: In vitro cytotoxic activity (IC50), U2OS
Protocol: as §1, §2, §3

[4] = tested on: HT29; test: MTT assay, HT29 cells; assay type: cell-based, human; details: Homo sapiens, HT-29; MTT; means of four experiments; na = not active; read-out: In vitro cytotoxic activity (IC50), HT29
Protocol: as §1, §2, §3

[5] = tested on: histones H2/H3 and H4 of HT29 cells; design: method as in PMID 15716589, PMID 22814230; details: cited from earlier work
[6] = tested on: HT29 cells; design: method as in PMID 14715257, PMID 22814230; details: cited from earlier work
[7] = tested on: J6; test: MTT assay, Jurkat J6 cells; assay type: cell-based; details: Homo sapiens, means of four experiments, na = not active, read-out: In vitro cytotoxic activity (IC50), J6
Protocol: as §1, §2, §3

[8] = tested on: MCF7; test: MTT assay, MCF7 cells; assay type: cell-based; details: Homo sapiens, means of four experiments, na = not active, read-out: In vitro cytotoxic activity (IC50), MCF7
Protocol: as §1, §2, §3

[9] = tested on: histone deacetylase HDAC1; design: method as in PMID 14715257, PMID 15716589, PMID 16702808, PMID 17234448, PMID 22814230; details: cited from earlier work

Row | SMILES | antitumor activity across all cell lines tested [1] | IC50 [2] | IC50 [3] | IC50 [4] | concentration inducing the same effect on the cell cycle (G0/G1 arrest) [6] | other results
1 | CCCCCCCCC(O[Si](C)(C)C(C)(C)C)C(CCCCCCCC(=O)OC)O[Si](C)(C)C(C)(C)C (racemic) [Compound 10, Rac-erythro-methyl 9,10-bis((tert-butyldimethylsilyl)oxy)octadecanoate] | no activity | – | – | – | – | –
2 | CCCCCCCCC(O[Si](C)(C)C(C)(C)C)C(CCCCCCCC(=O)O)O[Si](C)(C)C(C)(C)C (racemic) [Compound 13, Rac-erythro-9,10-bis((tert-butyldimethylsilyl)oxy)octadecanoic Acid] | showed antitumor activity | 131.8 ± 0.21 nM | 41.95 ± 0.29 nM | 25.3 ± 0.27 nM | – | –
3 | CCCCCCCCC[C@@H](O)CCCCCCCC(=O)O [(R)-9-HSA, (R)-9-hydroxystearic acid] | – | – | – | – | 50 µM | histone acetylation (free acid) [5]: induces hyperacetylation of histone H4
4 | CCCCCCCCC[C@H](CCCCCCCC(=O)OC)O[Si](C)(C)C(C)(C)C [Compound 3, Methyl (R)-9-((tert-butyldimethylsilyl)oxy)octadecanoate] | showed antitumor activity | 133.7 ± 0.32 nM | 29.33 ± 0.23 nM | 84.76 ± 0.1 nM | – | IC50 [7]: 151.6 ± 0.31 nM; IC50 [8]: 134 ± 0.27 nM
5 | CCCCCCCCCC(O)CCCCCCCC(=O)O (stereo not drawn) [Compound 9-HSA, 9-hydroxystearic acid] | – | – | – | – | 100 µM | inhibition of histone deacetylase HDAC1 [9]: selectively inhibits

From publication PMC11820896, “New Compounds with Enhanced Biological Activity Through the Strategic Introduction of Silylated Groups into Hydroxystearic Acids” (Molecules, 2025)
